Results: patent US7151104B2, “Pyrazolopyridines as cyclin dependent kinase inhibitors” (Schering Corporation, priority 2002, dated 2006)

Biological target: T1, Cyclin E/CDK2 (Homo sapiens, UniProt P24941)
T1 construct: The expressed protein was approximately 34 kDa in size; made in house; host or cells: SF9 insect cells (baculovirus co-infection)
Test: Cyclin E/CDK2 in vitro kinase assay (SPA, 33P-ATP, biotinylated Histone H1 peptide)
Type: biochemical
Settings: recombinant cyclin E/CDK2 from SF9 cells; 8 point serial dilutions in duplicate; 1 hour at room temperature

Work on Clc1cnn2c(NCc3cncnc3)cc(-c3ccccc3)cc12 yielded an IC50 of 78 nM.
